One data set deals with NCK2. Put plainly: NCK2 phase separation in vitro, 60 mM NaCl, Coomassie quantification (Fig. 5E). Also on record: species or system mouse. The following applies: Amount/Total. On the procedure:
E. coli BL21 (DE3) cells were transformed with mNCK2 constructs in the pET-30b vector and grown overnight at 37 °C in LB with 100 µg/ml kanamycin. The next day, cultures were expanded in LB with kanamycin until they reached their exponential growth phase (OD600 of around 1.0). Protein production was then induced by the addition of 1 mM IPTG (Bio Basic) and incubation at 16 °C overnight with agitation. Cultures were pelleted with a centrifugation step (3200g at 4 °C, 30 min), washed with ice-cold PBS, and pellets were kept at −80 °C. Bacteria were thawed in GST buffer (20 mM Tris-HCl pH 7.5, 0.5 M NaCl, 1 mM EDTA, and 1 mM DTT (Millipore Sigma)) with cOmplete protease inhibitors (Millipore Sigma) and disrupted with sonication. Lysates were then centrifuged at 20,000g for 20 min at 4 °C and the supernatant loaded to a GSTrap FF 1 mL column (GE Healthcare). Following a washing step with 10 mL GST–Buffer, the GST-Tagged proteins were eluted with 15 mM GSH (Bio-basic) and cleaved in a solution using purified recombinant His-tagged TEV protease (Thermo Fisher Scientific). Tag-free NCK2 proteins were further purified using a 1 ml HisTrap FF column (GE Healthcare) to remove free His-tagged GST and TEV as well as remaining impurities. The purified proteins were concentrated with Amicon 10 K filters (Millipore Sigma) and their concentration assessed using Coomassie and BCA assays (Thermo Fisher Scientific).
Purified NCK2 proteins were diluted in GST buffer to identical concentrations. At 500 mM NaCl present in this buffer, all NCK2 constructs were completely soluble. Phase transition was initiated by dilution in imidazole buffer (10 mM imidazole (Bio Basic) pH 7.0, 1 mM DTT, 1 mM EGTA (Millipore Sigma), 1 mM MgCl2, 2.5% Glycerol (Bioshop Canada), 3% Dextran (Millipore Sigma)) containing various amount of NaCl so that the final concentration of NaCl would correspond to those in Supplementary Fig. 7B. For all the other experiments, the phase transition of NCK2 proteins was assessed at 60 mM NaCl. NCK2 at 8 μg/μL (40 μg in 5 μL) was added to 35 μL imidazole buffer in a plastic 96-well plate that had first been pretreated with a 0.2% bovine serum albumin solution to reduce nonspecific binding. The plate assay was then incubated overnight (24 h) at 4 °C before imaging. Phase-contrast images of each well were acquired using a Zeiss Axio Vert.A1 inverted microscope with an LD A-Plan 40×/0.55 Ph1 objective (Zeiss) in Zen Blue software (version 2.3.69.1000). After imaging, the soluble protein fraction (supernatant) was recovered for sodium dodecyl sulfate polyacrylamide gel electrophoresis analysis. Protein droplets attached at the bottom of the well (pellet) were washed once with imidazole buffer with 60 mM NaCl and then solubilized in Laemmli buffer. The pellets to supernatant fractions were used to quantify phase transition at 60 mM NaCl (7 replicates) via Coomassie protein quantification. The involvement of weak hydrophobic interactions in NCK2 driven phase transition was assessed using 1,6-Hexanediol (Millipore Sigma) at 60 mM NaCl. Imidazole buffer containing 0%, 1%, 5%, and 10% 1,6-Hexanediol was first prepared and phase transition was initiated and analyzed as described above. Finally, the competition of SH3-2 dependent homotypic NCK2 interaction with an SH3-2 binding peptide was assessed in the presence of 5, 15, 45, 90, 150, or 300 μM PAK1 peptide ([…]) in imidazole buffer with 60 mM NaCl. The impact of PAK1 peptide addition was observed via phase contrast microscopy as described above.

For another data set, the system named is BEM1-1. The data set is described as follows: DHFR-PCA on solid medium, bait BEM1-1 (Fig. 1B). In kind it is cell-based, Saccharomyces cerevisiae. The following applies: bait BEM1-1, label = prey; for medrep (log2 median colony size normalized to plate background, PCA score): 2-8 replicates; for Ratio (SH3-deleted/WT medrep): only significant differences showed, PPIs completely lost have a ratio of 0.1 and the gained PPIs 2.5. From the text: (§1) Supplement 41467_2021_21873_MOESM8_ESM.xlsx, sheet "Fig1B" | column: medsize; medrep; Ratio; Score

For data set [1], the system named is 575 putative partners (preys) of 22 WT SH3-containing proteins. The data set is described as follows: DHFR-PCA on solid medium, WT and SH3-deleted baits (Fig. 1B). The following applies: for medrep (log2 median colony size normalized to plate background, PCA score): label = prey. Also on record: key to Score: 0: SH3-independent; 1: SH3-dependent PPIs; 2: SH3-inhibited PPIs. In kind it is cell-based, Saccharomyces cerevisiae. From the text:
To assess the requirement of SH3 domains for PPIs in vivo, we first measured binary interactions between 22 WT SH3-containing proteins (Supplementary Fig. 1A) as baits and 575 putative partners from their interconnected signaling networks using the dihydrofolate reductase protein–fragment complementation assay (DHFR-PCA) in the budding yeast Saccharomyces cerevisiae. About 33% (202/607) of the PPIs detected were described before, mostly by direct methods (Supplementary Fig. 1B, C)[11]. We repeated the experiments with baits in which the SH3s were individually replaced with a flexible linker by genome editing (SH3 domain deletion/stuffing, Fig. 1A). The stuffer DNA sequence ([…]) codes for a small flexible poly-Gly with Ser peptide ([…]) that is inspired by previous experiments[12],[13]. About a third of the SH3-containing protein interactome is qualitatively or quantitatively SH3-dependent (171 PPIs out of 607, Fig. 1B and Supplementary Fig. 1B, C). We validated the vast majority of the quantitative changes in low-throughput experiments and excluded that this is simply due to changes in protein abundance in most cases (Supplementary Fig. 1D–G). SH3-binding motifs[14] are more frequent in the SH3-dependent PPI partners when compared to sequences from random proteins, SH3-independent PPI partners or PPI partners that are stronger or gained following SH3 deletions (p values = 1.5 × 10^−17, 0.0038 and 2.1 × 10^−08, respectively; Mann–Whitney test, one-tailed, Fig. 1C). The changes we measure are therefore enriched for PPIs that depend on the direct interactions of the domains with the PPI partners.
The complete list of strains, primers, and gRNAs used in this study can be found in Supplementary Tables 1–3. All constructed yeast strains were validated by polymerase chain reaction (PCR) and confirmed by Sanger sequencing of the locus of interest. Bait strains for the DHFR-PCA experiments were constructed as follows. The genes of interest were fused at their genomic 3′ end by replacing the stop codon with a linker ([…]), the DHFR F[1,2] followed by a smaller linker (GGGGS), a 1× FLAG tag ([…]) and the NATMX4 resistance cassette via homologous recombination (all amplified from pAG25-DHFR[1,2]-linker-FLAG). The set of 615 prey strains (DHFR F[3] fusions in the BY4742 background) were retrieved from the Yeast Protein Interactome Collection[43] with the exception of 73 that were reconstructed (Supplementary Tables 1 and 2). Knockout strains were taken from the yeast knockout collection except for ABP1, BEM1, BZZ1, and SLA1, which were reconstructed by replacing the ORFs with the NATMX4 resistance cassette by homologous recombination in the BY4741 background.
Yeast SH3 domain genomic sequences were replaced by CRISPR–Cas9 genome editing. Each SH3 domain (as defined by the SMART database V8.0 except for Ysc84 SH3 (as defined by PROSITE), see Source Data for all SH3 sequences and Supplementary Table 1 for primers used) was specifically targeted by one gRNA[46]. Yeast competent cells were co-transformed with a pCAS plasmid (Addgene plasmid 60847[47]) expressing both the gRNA of interest and Streptococcus pyogenes Cas9[46] and a donor DNA sequence (stuffer) with 60 bp homology arms surrounding the SH3 DNA sequence. The Stuffer DNA was either PCR amplified or digested from a plasmid. The stuffer DNA sequence ([…]) codes for a small flexible linker ([…]) inspired by protein linkers used in structural biology[12],[13]. This type of linker is frequently used for fusing proteins without affecting the structure of the linked proteins.
The overall DHFR-PCA pipeline is based on Tarassov et al.[43] and the procedures have also been published as a visualized protocol. The screens were performed with robotically manipulated pin tools (BM5-SC1, S&P Robotics Inc.). First, the preys were cherry-picked from 96-well plates to omnitrays in a 384 format on YPD + HPH solid media. […]

In the next data set the test system is BEM1-2. The data set is described as follows: DHFR-PCA on solid medium, bait BEM1-2 (Fig. 1B). The conditions noted are these: bait BEM1-2, label = prey; for medrep (log2 median colony size normalized to plate background, PCA score): 2-8 replicates; for Ratio (SH3-deleted/WT medrep): only significant differences showed, PPIs completely lost have a ratio of 0.1 and the gained PPIs 2.5. In kind it is cell-based, Saccharomyces cerevisiae.
From the text: as §1

In a further data set the test system is BOI1. Put plainly: DHFR-PCA on solid medium, bait BOI1 (Fig. 1B). The format is cell-based, Saccharomyces cerevisiae. The conditions noted are these: bait BOI1, label = prey.
From the text: as §1

For a further data set, the system named is BBC1. The data set is described as follows: DHFR-PCA on solid medium, bait BBC1 (Fig. 1B). In kind it is cell-based, Saccharomyces cerevisiae. The following applies: bait BBC1, label = prey; for medrep (log2 median colony size normalized to plate background, PCA score): 2-4 replicates.
From the text: as §1

The next data set has as its system ABP1. The data set is described as follows: DHFR-PCA on solid medium, bait ABP1 (Fig. 1B). The following applies: bait ABP1, label = prey; 2-4 replicates. The format is cell-based, Saccharomyces cerevisiae.
From the text: as §1

The subject of a further data set is BOI2. Put plainly: DHFR-PCA on solid medium, bait BOI2 (Fig. 1B). In kind it is cell-based, Saccharomyces cerevisiae. The conditions noted are these: bait BOI2, label = prey.
From the text: as §1

Setting [2] is: bait SLA1-3, DHFR-PCA, Replicates 4 (2 for YCR009C, YDR388W, YIL033C).
Setting [3] is: only significant differences showed, PPIs completely lost have a ratio of 0.1 and the gained PPIs 2.5.

As to NCK2, the Ratio in the data set on NCK2 (Phase Pellet, replicate 1) stood at 0.2548; in the data set on NCK2 (Phase Pellet, replicate 2), 0.3742; in the data set with NCK2 (Phase Pellet, replicate 3) it was 0.4878; with NCK2 (Phase Pellet, replicate 4) it was 0.2596; in the data set on NCK2 (Phase Pellet, replicate 5), 0.2564; in the data set on NCK2 (Phase Pellet, replicate 6), 0.2454. The Ratio is 0.2712 in the data set with NCK2 (Phase Pellet, replicate 7); 0.7452 in the data set on NCK2 (Phase Soluble, replicate 1); 0.6258 in the data set on NCK2 (Phase Soluble, replicate 2); 0.5122 with NCK2 (Phase Soluble, replicate 3); 0.7404 in the data set on NCK2 (Phase Soluble, replicate 4); 0.7436 in the data set with NCK2 (Phase Soluble, replicate 5). For the same substance, the Ratio was 0.7546 in the data set on NCK2 (Phase Soluble, replicate 6) and 0.7288 with NCK2 (Phase Soluble, replicate 7).
For the substance YDR265W, in the data set on BEM1-1, the “medrep (log2 median colony size normalized to plate background, PCA score)” value is given as 2.347 and the “Ratio (SH3-deleted/WT medrep)” value amounted to 2.5.
For YGL206C, the “medrep (log2 median colony size normalized to plate background, PCA score)” value in data set [1] (setting [2]) stood at 4.577; with BEM1-2 it was 1.4327; in the data set with BOI1 (3-8 replicates) it was 1.512; in the data set on BBC1, 1.387; in the data set on ABP1 it was 4.275. The Score in data set [1] (bait SLA1-3, label = prey) is reported as 0. Besides, the figures for the “Ratio (SH3-deleted/WT medrep)” value with BEM1-2, with BOI1 (setting [3]) and in the data set on BBC1 (setting [3]) were 2.5, 0.1 and 0.4969, respectively.
Consider YJL210W, for which, in the data set on BEM1-1, the “medrep (log2 median colony size normalized to plate background, PCA score)” value is listed as 1.8146 and the “Ratio (SH3-deleted/WT medrep)” value turned out to be 2.5.
With YMR026C, in the data set on BEM1-1, the “medrep (log2 median colony size normalized to plate background, PCA score)” value came to 3.625 and the “Ratio (SH3-deleted/WT medrep)” value amounted to 2.5.
Turning to “YMR109W (PMFEAAYDFPGSGSPSELPLKKGDVIYITREEPSGWSLGKLLDGSKEGWVPTAYMKPHS)”, the “medrep (log2 median colony size normalized to plate background, PCA score)” value in data set [1] (bait SLA1-2, DHFR-PCA, Replicates 4 (2 for YCR009C, YDR388W)) was determined as 3.8664; in data set [1] (setting [2]), 3.8664; in the data set with BOI2 (3-8 replicates), 1.504; with BEM1-2 it was 1.531; with BBC1 it was 5.231; with ABP1, 4.62. The “medrep (log2 median colony size normalized to plate background, PCA score)” value with BEM1-1 is given as 1.531. The Score turned out to be 1 in data set [1] (bait SLA1-2, label = prey) and 0 in data set [1] (bait SLA1-3, label = prey). The “Ratio (SH3-deleted/WT medrep)” value was found to be 0.1 in data set [1] (bait SLA1-2, label = prey, only significant differences shown, PPIs completely lost have a ratio of 0.1, gained PPIs 2.5); 0.1 in the data set with BOI2 (setting [3]); 0.1 in the data set on BEM1-2; 0.1 with BEM1-1.

The values above are taken from publication PMC7954794, “Protein context shapes the specificity of SH3 domain-mediated interactions in vivo” (Nature Communications, 2021).
